Earlier results in patent publication US20080226719A1, “Combination of Rosiglitazone and Donepezil for Improvement of Cognitive Function” (priority 2005, published 2008).
Like-named read-outs stand apart in the source and are kept apart here.

System: individuals with mild cognitive impairment
Details: cited from earlier work; for rate at which patients developed AD: mild cognitive impairment

In the case of `COc1cc2c(cc1OC)C(=O)C(CC1CCN(Cc3ccccc3)CC1)C2` (stereo not drawn) [donepezil], the “risk of progressing to AD compared to placebo” value (carriers of one or two copies of an APOE4 allele, after three years) is listed as “reduced risk of progressing to AD”, the “rate at which patients developed AD” value (at three years, versus placebo) is listed as “no separation between groups” and the “rate at which patients developed AD” value (first twelve months of administration) is listed as “reduce the rate at which patients developed AD”.
